Assays:
[1] = Ratio of drug level in brain to plasma in Wistar Hann rat at 5 mg/kg, sc after 1 hr; format: ADME, organism-based
[2] = AUC (0 to infinity) in Wistar Hann rat CSF at 5 mg/kg, sc; format: ADME, organism-based, Cerebrospinal fluid; set-up: dose 5 mg/kg, time infinity, route subcutaneous
[3] = Cmax in Wistar Hann rat CSF at 5 mg/kg, sc; format: ADME, organism-based, Cerebrospinal fluid; set-up: dose 5 mg/kg, route subcutaneous
[4] = Ratio of drug level in CSF to plasma in Wistar Hann rat at 5 mg/kg, sc after 1 hr; format: ADME, organism-based; details: CSF and plasma
[5] = Drug concentration in Wistar Hann rat brain at 5 mg/kg, sc after 1 hr; format: ADME, organism-based; details: read-out: Drug uptake
Plasma [6] = experiment: Fraction unbound in Wistar Hann rat plasma at 5 mg/kg, sc after 4 hrs; format: ADME, organism-based; details: in vivo
Plasma [7] = experiment: Fraction unbound in Wistar Hann rat plasma; format: ADME, cell-free
Plasma [8] = experiment: Fraction unbound in C57BL/6j mouse plasma; format: ADME, cell-free
[9] = Ratio of unbound AUC in CSF to plasma in Wistar Hann rat at 5 mg/kg, sc after 4 hrs; format: ADME, organism-based; details: CSF and plasma, read-out: Ratio AUC
[10] = Ratio of unbound AUC in brain to plasma in Wistar Hann rat at 5 mg/kg, sc after 1 hr; format: ADME, organism-based; details: read-out: Ratio AUC
[11] = Drug concentration in Wistar Hann rat plasma at 5 mg/kg, sc after 4 hrs; format: ADME, organism-based
[12] = Ratio drug level in brain to plasma in C57BL/6j mouse at 10 mg/kg, sc after 4 hrs; format: ADME, organism-based; details: read-out: BPR
[13] = Ratio of unbound AUC in brain to plasma in Wistar Hann rat at 5 mg/kg, sc after 2 hrs; format: ADME, organism-based; details: brain and plasma, read-out: Ratio AUC
[14] = Drug concentration in Wistar Hann rat CSF at 5 mg/kg, sc after 1 hr; format: ADME, organism-based, Cerebrospinal fluid; details: read-out: Drug uptake
[15] = Ratio of unbound AUC in brain to plasma in C57BL/6j mouse at 10 mg/kg, sc after 4 hrs; format: ADME, organism-based; details: read-out: Ratio AUC
[16] = Tmax in Wistar Hann rat plasma at 5 mg/kg, sc; format: ADME, organism-based
[17] = Oral bioavailability in Wistar Hann rat at 2 mg/kg; format: ADME, organism-based; details: in vivo
[18] = Ratio of unbound AUC in CSF to plasma in Wistar Hann rat at 5 mg/kg, sc after 1 hr; format: ADME, organism-based; details: CSF and plasma, read-out: Ratio AUC
[19] = AUC (0 to tlast) in Wistar Hann rat plasma at 5 mg/kg, sc; format: ADME, organism-based
[20] = Tmax in Wistar Hann rat CSF at 5 mg/kg, sc; format: ADME, organism-based, Cerebrospinal fluid
[21] = Drug concentration in Wistar Hann rat brain at 5 mg/kg, sc after 4 hrs; format: ADME, organism-based; details: read-out: Drug uptake
[22] = Intial plasma concentration in Wistar Hann rat at 0.5 mg/kg, iv; format: ADME, organism-based
Plasma [23] = experiment: Fraction unbound in Wistar Hann rat plasma at 5 mg/kg, sc after 6 hrs; format: ADME, organism-based; details: in vivo
[24] = Drug concentration in Wistar Hann rat plasma at 5 mg/kg, sc after 2 hrs; format: ADME, organism-based
Plasma [25] = experiment: Fraction unbound in Wistar Hann rat plasma at 5 mg/kg, sc after 1 hr; format: ADME, organism-based; details: in vivo
[26] = Ratio drug level in brain to plasma in C57BL/6j mouse at 10 mg/kg, sc after 0.5 hrs; format: ADME, organism-based; details: read-out: BPR
[27] = Ratio of unbound AUC in CSF to plasma in Wistar Hann rat at 5 mg/kg, sc after 6 hrs; format: ADME, organism-based; details: CSF and plasma, read-out: Ratio AUC
[28] = Ratio of drug level in brain to plasma in Wistar Hann rat at 5 mg/kg, sc after 2 hrs; format: ADME, organism-based
[29] = Permeability in RRCK cells; format: ADME, cell-based, Canis lupus familiaris, MDCKII-LE; details: dog, MDCK; read-out: permeability
[30] = AUC in Wistar Hann rat at 2 mg/kg, po; format: ADME, organism-based; details: in vivo
[31] = Ratio of drug level in CSF to plasma in Wistar Hann rat at 5 mg/kg, sc after 4 hrs; format: ADME, organism-based; details: CSF and plasma
[32] = Cmax in Wistar Hann rat plasma at 5 mg/kg, sc; format: ADME, organism-based; set-up: dose 5 mg/kg, route subcutaneous
Plasma [33] = experiment: Fraction unbound in C57BL/6j mouse plasma at 10 mg/kg, sc after 4 hrs; format: ADME, organism-based; details: in vivo
Plasma [34] = experiment: Fraction unbound in C57BL/6j mouse plasma at 10 mg/kg, sc after 0.5 hrs; format: ADME, organism-based; details: in vivo
[35] = AUC (0 to tlast) in Wistar Hann rat brain at 5 mg/kg, sc; format: ADME, organism-based
[36] = Tmax in Wistar Hann rat at 2 mg/kg, po; format: ADME, organism-based; details: in vivo

## Cn1ccc(-c2ccc(Cn3cc(C(=O)N[C@H]4CCOC[C@@H]4O)c4ncccc43)cc2)n1
[1]
  Kp at 1 h: 0.21
[2]
  AUC(0-inf): 0.38 µg·h/mL
[3]
  Cmax: 0.0622 µg/mL
[4]
  Kp at 1 h: 0.03
[5]
  concentration at 1 h: 1050 nM
Plasma [6]
  Cp(f): 293 nM
Plasma [7]
  Cp(f): 0.092 nM
Plasma [8]
  Cp(f): 0.027 nM
[9]
  Kp uu at 4 h: 0.27
[10]
  Kp uu at 1 h: 0.15
[11]
  concentration at 4 h: 3190 nM
[12]
  Kp at 4 h: 0.1
[13]
  Kp uu at 2 h: 0.13
[14]
  concentration at 1 h: 133 nM
[15]
  Kp uu at 4 h: 0.24
[16]
  Tmax: 2 h
[17]
  bioavailability: 67.9%
[18]
  Kp uu at 1 h: 0.29
[19]
  AUC(0-t): 9.4 µg·h/mL
[20]
  Tmax: 2 h
[21]
  concentration at 4 h: 681 nM
[22]
  C0: 0.535 µg/mL
Plasma [23]
  Cp(f): 197.5 nM
[24]
  concentration at 2 h: 5460 nM
Plasma [25]
  Cp(f): 463 nM
[26]
  Kp at 0.5 h: 0.14
[27]
  Kp uu at 6 h: 0.27
[28]
  Kp at 2 h: 0.18
[29]
  Papp: 315 nm/s
[30]
  AUC: 4.51 µg·h/mL
[31]
  Kp at 4 h: 0.02
[32]
  Cmax: 2.36 µg/mL
Plasma [33]
  Cp(f): 218 nM
Plasma [34]
  Cp(f): 295 nM
[35]
  AUC(0-t): 1.83 µg·h/mL
[36]
  Tmax: 1.5 h
